From patent US20040192673A1, “N-aroyl cyclic amine derivatives as orexin receptor antagonists” (priority 2001, published 2004)

Key:
freely-feeding rats = details: central administration, 4 hour time period; cited from earlier work
rat = test: Rat sleep/EEG studies; assay type: in vivo; details: central administration at the onset of the normal sleep period
Text: Therefore antagonists of its receptor may be useful in the treatment of sleep disorders including insomnia.

Question: What does the source list for “orexin-A: ligand for the orexin-1 receptor, an agonist of the orexin receptors; 33-residue peptide, sequence in b167 (QPLPDCCRQKTCSCRLYELLHGAGNHAAGILTL; not fully specified; Orexin-A; UniProt O43612 34-66, looked up)”?
Answer: increase in food intake over control rats receiving vehicle (freely-feeding rats): approximately four-fold; arousal (sleep/EEG) (rat): dose-related increase in arousal
